# Measured values reported in US20260335279A1, “METHODS OF TREATING ISCHEMIA-REPERFUSION INJURIES” (University of Cincinnati, priority 2022, published 2026).
# What was measured:
# KLF5 = KLF5 suppression, mRNA (quantitative real-time PCR) in cardiac tissue, I/R mice; format: in vivo, mouse (C57BL/6)
# Method: (§1) The myocardial ischemia/reperfusion surgical protocol was applied as follows. Mice were anesthetized with 2% isoflurane inhalation until anesthesia was achieved. The animals' body temperature was maintained at 37 °C throughout the surgical procedure using a heating pad. A tracheal tube was placed via tracheal intubation and the respiration rate was set at 150 strokes/min with a tidal volume of 200 μL, using Minivent ventilator for mice (Model 845, Harvard Apparatus). A 1.2 cm incision was made over the left chest. After retraction of the pectoral major and minor muscles, the fourth intercostal space was exposed. […] The mouse was then monitored during the recovery period, which was generally completed within 3 to 5 minutes. […]
# (§2) Total RNA was purified from heart tissue using the TRIzol reagent according to the instructions of the manufacturer (ThermoFischer Scientific, Cat. No.: 15596018). cDNA synthesis was performed using the Applied Biosystems High Capacity cDNA Reverse Transcription Kit (ThermoFischer Scientific, Cat. No.: 4368814) from 500 ng RNA, which had been treated with DNAase I (ThermoFischer Scientific, Cat. No.: 18068015). Quantitative real-time PCR was performed with the SYBR Select Master Mix (ThermoFischer Scientific, Cat. No.: 4472903) using the manufacturer's recommendations. […]
# TNFα = TNFα mRNA in ischemic myocardium; format: in vivo, mouse (C57BL/6); details: evaluated at 2 h and 24 h of reperfusion, vs vehicle
# Method: as §1, §2
# [1] = system: myocardial ischemia-reperfusion injury in mice; assay: Speckle tracking echocardiography in murine myocardial ischemia-reperfusion injury; format: in vivo, mouse (C57BL/6); details: 30 min ischemia, 24 h reperfusion; 25 mg/kg/12 h intraperitoneal; vs vehicle
# Method: (§3) Cardiac function was assessed by transthoracic echocardiography using the VisualSonics Vevo F2 system (VisualSonics, Toronto, ON). Sedation was induced by 3% isoflurane and maintained at 0.5% isoflurane during the procedure, during which the animals were placed on a heated table under a lamp at approximately 37 °C. Parasternal long axis (PSLAX) and short axis (SAX) images were recorded and then analyzed on a separate workstation with VevoLab software (Vevo 2100, v1.6, Visualsonic, Toronto, Canada). From the M-mode images, left ventricular cavity size for systole and diastole (LV dia;s, LV dia;d, LV Vol;s and LV Vol;d) were measured. Heart rate (HR), stroke volume (SV), and the echocardiographic calculation for fractional shortening (FS), ejection fraction (EF) and cardiac output (CO) were obtained using the Vevo software. Treatment and control groups were analyzed on the same day by the same technician in order to minimize variation. For VevoStrain analysis, B-mode images of 300 frames at greater than 200 frames/second were used.
# The myocardial ischemia/reperfusion surgical protocol was applied as follows. Mice were anesthetized with 2% isoflurane inhalation until anesthesia was achieved. The animals' body temperature was maintained at 37 °C throughout the surgical procedure using a heating pad. A tracheal tube was placed via tracheal intubation and the respiration rate was set at 150 strokes/min with a tidal volume of 200 μL, using Minivent ventilator for mice (Model 845, Harvard Apparatus). A 1.2 cm incision was made over the left chest. After retraction of the pectoral major and minor muscles, the fourth intercostal space was exposed. […] The left anterior descending coronary artery (LAD) was then located, sutured, and ligated at a site 3-4 mm distal to the origin of the artery under the left atrium using a 6-0 silk suture. The heart was allowed to stabilize for 15 min and right after, ischemia was induced by tightening the suture against a small piece of polyethylene tube. At the end of the 30-minute ischemia period, the ligature was released for the induction of reperfusion, and then the manual evacuation of air and closure of muscle and skin were performed. The mouse was then monitored during the recovery period, which was generally completed within 3 to 5 minutes. Sustain-released buprenorphine (BupSR, 0.5 mg/kg body weight) was provided by subcutaneous injection. Mice were then left to recover until the end of the reperfusion (2 hours, 12 hours, 24 hours, or 4 weeks). The sham group underwent the same surgical procedure except that the LAD was not occluded.
# To explore whether KLF5 inhibition holds therapeutic potential against myocardial I/R injury, WT mice were subjected to 30 minutes of ischemia, followed by 24 hours of reperfusion while being treated with a pharmacological KLF5 inhibitor, namely ML264. ML264 (25 mg/kg/12 h) was dissolved in 10% DMSO, 10% Tween 80, and 80% normal saline, and was administered by intraperitoneal injection in mice.
# A first dose of ML264 was administered five minutes before the reopening of the coronary artery, due to the clinical application that this time point holds, as well as previous reports about the importance of this time point regarding the pharmacological possibilities for the cardioprotection against I/R injury. 2D echocardiography was performed after 24 hours of reperfusion.
# [2] = system: myocardial ischemia-reperfusion injury in mice; assay: 2D echocardiography (cardiac function) in murine myocardial ischemia-reperfusion injury; format: in vivo, mouse (C57BL/6); details: 30 min ischemia
# Method: as §3
# The myocardial ischemia/reperfusion surgical protocol was applied as follows. Mice were anesthetized with 2% isoflurane inhalation until anesthesia was achieved. […] The mouse was then monitored during the recovery period, which was generally completed within 3 to 5 minutes. […]
# Glut1 = assay: GLUT1 protein levels after I/R; format: in vivo, mouse; details: ML-264 treatment; did not reach statistical significance
# Method: as §1
# (§4) Isolated myocardial tissue/isolated primary murine cardiomyocytes were homogenized in radioimmunoprecipitation assay buffer (RIPA buffer) containing protease and phosphatase inhibitors (Thermo Fischer Scientific, Cat. No.: A32959). […] Relative densitometry was determined, and the β-actin protein was used as a loading control.
# Finally, to test the potential involvement of GLUT1 and GLUT4 in myocardial ischemia-reperfusion injury, two compounds, namely KL-11743, a non-specific GLUT inhibitor, as well as STF-31, which is a GLUT1-specific inhibitor, were evaluated.
# BCL-XL = BCL-XL anti-apoptotic protein in myocardium after I/R (Western blot); format: in vivo, mouse (C57BL/6); details: ML264-treated group; 30 min ischemia, 2 h reperfusion
# Method: The myocardial ischemia/reperfusion surgical protocol was applied as follows. Mice were anesthetized with 2% isoflurane inhalation until anesthesia was achieved. The animals' body temperature was maintained at 37 °C throughout the surgical procedure using a heating pad. A tracheal tube was placed via tracheal intubation and the respiration rate was set at 150 strokes/min with a tidal volume of 200 μL, using Minivent ventilator for mice (Model 845, Harvard Apparatus). A 1.2 cm incision was made over the left chest. After retraction of the pectoral major and minor muscles, the fourth intercostal space was exposed. […] The left anterior descending coronary artery (LAD) was then located, sutured, and ligated at a site 3-4 mm distal to the origin of the artery under the left atrium using a 6-0 silk suture. […] The mouse was then monitored during the recovery period, which was generally completed within 3 to 5 minutes. […]
# as §4
# In order to unravel the mechanisms of KLF5-mediated cardiotoxicity, oxidative stress levels were evaluated at early reperfusion. […]
compound,measurement,setting,value
CN(C(=O)CNC(=O)/C=C/c1cccc(Cl)c1)C1CCS(=O)(=O)CC1 [ML264],KLF5 mRNA levels (4 weeks),"KLF5; 4 weeks post-ischemia-reperfusion, among the four groups",unchanged
same,KLF5 mRNA expression level in cardiac tissue,"KLF5; 30 minutes of ischemia, ML264 25 mg/kg/12 h intraperitoneal",suppression was confirmed
same,TNFα mRNA levels,TNFα,Significant suppression
same,global circumferential strain,[1],significant increase
same,lateral wall circumferential strain,[1],significant increase
same,lateral wall circumferential strain rate,[1],significant increase
same,lateral wall radial strain,[1],significant increase
same,lateral wall radial strain rate,[1],significant increase
same,ejection fraction (4 weeks),"[2]; 4 weeks reperfusion, two doses of ML264 at early reperfusion, vs IR vehicle",significant preservation
same,ejection fraction,"[2]; 24 h reperfusion, 25 mg/kg/12 h intraperitoneal, first dose 5 min before reopening of coronary artery, vs vehicle",significant preservation
same,GLUT1 protein levels,Glut1,trend towards suppression
same,BCL-XL anti-apoptotic proteins,BCL-XL,upregulation
